Experimental data published in patent publication US20080009019A1, “HIGH THROUGHPUT METHOD FOR SCREENING CANDIDATE COMPOUNDS FOR BIOLOGICAL ACTIVITY” (SmithKline Beecham Corporation, priority 2001, published 2008).

Key:
Format in all cases: cell-based
MC1R [1] = target: T1, MC1R (Homo sapiens, UniProt Q01726); experiment: Bead-based lawn assay, peptides photocleaved from beads in lawn of CHO-6CRE-luc+-MC1R cells; parameters: expressed in transfected cells; details: for response value at plateau compared with maximal response to [NDP]-α-MSH: 3-minute UV time point, FIG. 11B versus FIG. 11A; for UV exposure time point at which response began to plateau: 5 beads per peptide pushed into lawn, UV 365 nm for 0, 0.5, 1, 3, 10 minutes, FIG. 11B
T1 sequence (Q01726 whole entry): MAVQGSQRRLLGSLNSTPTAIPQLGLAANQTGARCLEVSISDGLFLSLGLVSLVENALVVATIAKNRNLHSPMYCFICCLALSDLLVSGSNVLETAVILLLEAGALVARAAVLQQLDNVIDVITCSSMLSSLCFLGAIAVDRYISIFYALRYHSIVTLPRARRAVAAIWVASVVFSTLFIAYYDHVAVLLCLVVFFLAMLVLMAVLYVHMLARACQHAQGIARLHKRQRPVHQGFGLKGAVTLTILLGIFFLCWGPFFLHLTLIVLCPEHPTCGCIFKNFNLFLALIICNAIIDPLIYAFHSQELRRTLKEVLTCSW
Description: Agonists for GPCRs were assayed using beads to which peptides or compounds are attached by a photolinker. The beads were either mixed in the agarose or were applied to the surface of the lawn. The attached compound or peptide was cleaved by exposure to UV light.
Cell culture and assay methods were as described in Example 1. Hexamer peptides were linked to 200 micrometer […]™ microsphere beads (polystyrene core with […]™ pegs—available from Rapp Polymere GmbH of Tubingen, Germany) by a photocleavable linker. Two peptides were tested for validation purposes: Peptide 1-Ac-NH-Ser-Val-dHis-dPhe-Arg-Trp (SEQ ID NO:1) and Peptide 2-Ac-NH-Val-Ala-dHis-dPhe-Arg-Tyr (SEQ ID NO:2). Beads were added to the agarose lawn either by pushing the bead into the agarose with forceps or by suspending the beads in the melted agarose/cell mixture. Peptides were cleaved from the beads by exposure to ultraviolet light using a UV lamp set at 365 nm wavelength (λ).
A time course of delivery of MC1R agonist peptides 1 and 2, which were linked to beads (described in methods), to a lawn of CHO-6CRE-luc^+-MC1R cells is shown in FIGS. 10A-10E. The peptides were cleaved from the beads by increasing the time of UV exposure. FIGS. 10A-10E depict UV exposure for 0, 0.5, 1, 3, and 10 minutes, respectively. A concentration-response curve for of [NDP]-α-MSH was run in row 1 on each lawn at the same concentrations as in FIG. 9. Five (5) beads each of peptide 1 and 2 were pushed into the agarose layer with forceps. Peptide 1 and 2 were on the left and right of each lawn, respectively.
FIG. 11A is a line graph representation of the average luminescence of the 5 beads at each time point. The response was calculated by subtracting the background z value for the lawn from the z value for each area to which the bead was applied. The magnitude of response is dictated by both the response of the reporter cell line and the amount of peptide that can be released from the beads. Both peptide 1 and 2 are full agonists for MC1R when tested in a well-based reporter assay so both peptides are capable of eliciting a response similar to [NDP]-α-MSH.

MC1R [2] = target: T1, MC1R; experiment: Well-based reporter assay
[3] = target: T2, corticotrophin releasing factor receptor (CRHR1) (Homo sapiens, UniProt P34998); experiment: Agarose lawn reporter assay, CHO-6xCRE-luc+ cells expressing CRH1 receptor; details: approximately 10 nl of 5×10^−4 M to 1.5×10^−6 M peptide solution on lawn by HDR pin tool; 4 hours at 37° C.; FIGS. 7A-7B
T2 construct: expressed in transfected cells
T2 sequence (P34998 24-415): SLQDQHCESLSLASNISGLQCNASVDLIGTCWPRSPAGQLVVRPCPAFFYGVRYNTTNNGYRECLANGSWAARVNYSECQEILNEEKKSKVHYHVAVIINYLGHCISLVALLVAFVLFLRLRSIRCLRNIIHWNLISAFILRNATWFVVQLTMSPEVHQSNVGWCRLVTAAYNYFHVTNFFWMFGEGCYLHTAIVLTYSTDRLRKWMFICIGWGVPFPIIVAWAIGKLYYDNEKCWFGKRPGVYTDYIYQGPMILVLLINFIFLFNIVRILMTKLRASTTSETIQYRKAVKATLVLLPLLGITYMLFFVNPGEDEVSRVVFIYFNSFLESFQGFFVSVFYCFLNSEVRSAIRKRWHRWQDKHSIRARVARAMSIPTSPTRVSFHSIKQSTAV
Source text: Chinese hamster ovary (CHO) cells were transfected with a 6xCRE-luciferase^+reporter gene. A stable host cell line was selected, into which cloned human receptors were transfected. Stable cell lines expressing these receptors were selected for screening purposes.
A reporter gene host cell line stably expressing a reporter construct comprising 6 cyclic AMP response elements (CREs) driving the expression of luciferase (6xCRE-luciferase^+) was generated as described by Goetz et al., (2000) J. Biomolec. Screening 5:377-384. […]
1.5 grams of LMP agarose were dissolved in 100 ml of assay medium (DMEM/F12 medium containing 2% glutamine) in a microwave oven. […] The cells were collected from suspension culture and were re-suspended in 60 ml of assay medium for determination of quantity of cells. […]
Solutions of peptides were then delivered to the lawn using a HDR 96-pin tool that delivers approximately 10 nanoliters (nl) of solution. […] Luminescence was detected using a VIEWLUX® camera.
Images were acquired by focusing luminescent light from the OMNI PLATE® tray, for 90 seconds, onto a CCD camera chip via a telecentric lens. […] The gray intensity was determined by scanning each grid unit to determine where the highest point in the region was located. […] The x and y co-ordinates were recorded to facilitate the production of graphical representations of the data.

| Substance | response value at plateau compared with maximal response to [NDP]-α-MSH (MC1R [1]) | UV exposure time point at which response began to plateau (MC1R [1]) [min] | agonist character for MC1R (MC1R [2]) | concentration-response curve of luminescence activity [3] |
| --- | --- | --- | --- | --- |
| Ac-NH-Ser-Val-dHis-dPhe-Arg-Trp [peptide 1] | well below the maximal response to [NDP]-α-MSH | 3 | full agonists | – |
| Ac-NH-Val-Ala-dHis-dPhe-Arg-Tyr [peptide 2] | well below the maximal response to [NDP]-α-MSH | 3 | full agonists | – |
| corticotrophin releasing factor [CRH] | – | – | – | concentration-response curve of luminescence activity was only observed when peptide was applied to the cell line expressing the appropriate receptor |
